Tests used:
DLD1 NRF2-WT [1] = details: 72 h; CellTiter-Glo viability
Procedure, shortened: (§1)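 Isogenic DLD1 colorectal cancer cells, either NRF2 wild-type or CRISPR gain-of-function, were grown in DMEM with 10% FBS. They were exposed in 384-well plates to library compounds at 5 concentrations spanning a 10,000-fold range. After 72 h, viability was read by CellTiter-Glo on a Pherastar FS reader and normalised to vehicle wells and 100-μM positive-control wells. EC50 and drug sensitivity score (a normalised area under the curve) came from four-parameter logistic dose-response fits.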

DLD1 NRF2-GOF [2] = details: 72 h; CellTiter-Glo viability
Procedure, shortened: as §1

DLD1 NRF2-WT [3] = assay: drug sensitivity score (DSS) viability (DSS score); higher = more sensitive; extreme values may be limits of the assay; details: 72 h; CellTiter-Glo viability
Procedure, shortened: as §1

DLD1 NRF2-GOF [4] = assay: as above; details: 72 h; CellTiter-Glo viability
Procedure, shortened: as §1

DLD1 NRF2-WT [5] = assay: TC50 cytotoxicity; higher = less toxic; details: 72 h; CellTox Green cytotoxicity
Procedure, shortened: as §1, with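 “cytotoxicity” for “viability”, “CellTox Green” for “CellTiter-Glo”, “TC50” for “EC50”, “from” for “from four-parameter”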

DLD1 NRF2-GOF [6] = assay: TC50 cytotoxicity; higher = less toxic; details: 72 h; CellTox Green cytotoxicity
Procedure, shortened: as §1, with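 “cytotoxicity” for “viability”, “CellTox Green” for “CellTiter-Glo”, “TC50” for “EC50”, “from” for “from four-parameter”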

DLD1 NRF2-WT [7] = assay: drug sensitivity score (DSS) cytotoxicity (DSS score); higher = more toxic; extreme values may be limits of the assay; details: 72 h; CellTox Green cytotoxicity
Procedure, shortened: as §1, with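 “cytotoxicity” for “viability”, “CellTox Green” for “CellTiter-Glo”, “TC50” for “EC50”, “from” for “from four-parameter”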

DLD1 NRF2-GOF [8] = assay: as above; details: 72 h; CellTox Green cytotoxicity
Procedure, shortened: as §1, with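 “cytotoxicity” for “viability”, “CellTox Green” for “CellTiter-Glo”, “TC50” for “EC50”, “from” for “from four-parameter”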

Row | EC50 viability (DLD1 NRF2-WT [1]) | EC50 viability (DLD1 NRF2-GOF [2]) | Compound | drug sensitivity score (DLD1 NRF2-WT [3]) | drug sensitivity score (DLD1 NRF2-GOF [4]) | TC50 cytotoxicity (DLD1 NRF2-WT [5]) | TC50 cytotoxicity (DLD1 NRF2-GOF [6]) | drug sensitivity score (DLD1 NRF2-WT [7]) | drug sensitivity score (DLD1 NRF2-GOF [8])
1 | 13.2 nM | 26.1 nM | Cn1c(=O)n(-c2ccc(C(C)(C)C#N)cc2)c2c3cc(-c4cnc5ccccc5c4)ccc3ncc21 [Dactolisib] | 13.9 | 9.8 | > 1000 nM | > 1000 nM | 0 | 0
2 | 26.7 nM | 28.4 nM | Nc1ccn([C@@H]2O[C@H](CO)[C@@H](O)C2(F)F)c(=O)n1 [Gemcitabine] | 11.4 | 10.7 | > 1000 nM | > 1000 nM | 0 | 0
3 | > 1000 nM | > 1000 nM | CNC(=O)c1ccc(C)c(-n2c(C)cc(OCc3ccc(F)cc3F)c(Br)c2=O)c1 | 1.3 | 0 | > 1000 nM | > 1000 nM | 0 | 0
4 | 6.8 nM | 3.7 nM | COCC[n+]1c2c(n(Cc3cnccn3)c1C)C(=O)c1ccccc1C2=O [Sepantronium bromide] | 38.7 | 41.8 | 28.7 nM | 27.5 nM | 21.7 | 30.9
5 | > 1000 nM | > 1000 nM | CCCc1cc(C)[nH]c(=O)c1CNC(=O)c1cc(-c2ccnc(N3CCN(C)CC3)c2)cc2c1cnn2C(C)C [GSK343] | 0 | 0 | > 1000 nM | > 1000 nM | 0 | 0
6 | 322 nM | 64.9 nM | CCS(=O)(=O)N1CCN(c2ccc(Nc3ncc(C(N)=O)c(NC4CC4)n3)cc2)CC1 [Cerdulatinib] | 4.3 | 13.8 | > 10000 nM | > 10000 nM | 0 | 0
7 | > 2500 nM | > 2500 nM | CC(C)Oc1ccc(-c2nn([C@@H](C)c3oc4ccc(F)cc4c(=O)c3-c3cccc(F)c3)c3ncnc(N)c23)cc1F [TGR-1202] | 0 | 0 | > 2500 nM | > 2500 nM | 0 | 0
8 | 315 nM | 1490 nM | CC(=O)c1c(C)c2cnc(Nc3ccc(N4CCNCC4)cn3)nc2n(C2CCCC2)c1=O [Palbociclib] | 12.3 | 6.7 | > 10000 nM | > 10000 nM | 0.2 | 0
9 | 3500 nM | 1290 nM | Nc1nc2[nH]cnc2c(=S)[nH]1 [Thioguanine] | 4.4 | 9.4 | > 10000 nM | > 10000 nM | 0.2 | 0
10 | 175 nM | 106 nM | NC(=O)Nc1cc(-c2cccc(F)c2)sc1C(=O)N[C@H]1CCCNC1 [AZD7762] | 5.3 | 7.6 | 247 nM | 362 nM | 2.2 | 1.7
11 | 3.4 nM | 9.6 nM | CCc1cnn2c(NCc3ccc[n+]([O-])c3)cc(N3CCCC[C@H]3CCO)nc12 [Dinaciclib] | 27.5 | 21 | > 1000 nM | > 1000 nM | 3.3 | 0
12 | 796 nM | > 10000 nM | CNC(=O)c1cccc2cc(Oc3ccnc4cc(OCC5(N)CC5)c(OC)cc34)ccc12 [Lucitanib] | 2.7 | 1.3 | > 10000 nM | > 10000 nM | 0 | 0
13 | 874 nM | 552 nM | Cn1cc(C[C@@H](N)C(=O)O)c2ccccc21 [1-methyl-D-tryptophan] | 2.3 | 3.2 | > 5000 nM | > 5000 nM | 0 | 0
14 | > 10000 nM | 1030 nM | C=C(c1ccc(C(=O)O)cc1)c1cc2c(cc1C)C(C)(C)CCC2(C)C [Bexarotene] | 0 | 3.9 | > 10000 nM | > 10000 nM | 0 | 0
15 | 82.2 nM | 39.6 nM | C=CC(=O)Nc1cccc(Nc2nc(Nc3ccc(OCCOC)cc3)ncc2F)c1 [Spebrutinib] | 3.2 | 6.5 | > 1000 nM | > 1000 nM | 0 | 0
16 | 993 nM | > 2500 nM | CC(C)(C)c1nc(-c2cccc(NS(=O)(=O)c3c(F)cccc3F)c2F)c(-c2ccnc(N)n2)s1 [Dabrafenib] | 1.4 | 0.6 | > 2500 nM | > 2500 nM | 0 | 0
17 | > 10000 nM | 1680 nM | Cc1cc(C)c(CNC(=O)c2cc(-c3ccc(CN4CCOCC4)cc3)cc3c2cnn3C2CCCC2)c(=O)[nH]1 [EPZ-5687] | 3.3 | 3.2 | > 10000 nM | > 10000 nM | 0 | 0
18 | > 10000 nM | > 10000 nM | Cn1ncc(Cl)c1-c1cc(C(=O)N[C@H](CN)Cc2ccc(F)c(F)c2)oc1Cl [Uprosertib] | 3.4 | 0 | > 10000 nM | > 10000 nM | 0 | 0
19 | > 1000 nM | > 1000 nM | COc1cc2nccc(Oc3ccc(NC(=O)C4(C(=O)Nc5ccc(F)cc5)CC4)cc3)c2cc1OC [Cabozantinib] | 0 | 1.1 | > 1000 nM | > 1000 nM | 0 | 0

Row | Compound | EC50 viability (DLD1 NRF2-WT [1]) | EC50 viability (DLD1 NRF2-GOF [2]) | drug sensitivity score (DLD1 NRF2-WT [3]) | drug sensitivity score (DLD1 NRF2-GOF [4]) | TC50 cytotoxicity (DLD1 NRF2-WT [5]) | TC50 cytotoxicity (DLD1 NRF2-GOF [6]) | drug sensitivity score (DLD1 NRF2-WT [7]) | drug sensitivity score (DLD1 NRF2-GOF [8])
20 | Cc1sc2c(c1C)C(c1ccc(Cl)cc1)=N[C@@H](CC(=O)OC(C)(C)C)c1nnc(C)n1-2 [JQ1] | 272 nM | 2710 nM | 8.8 | 2.6 | > 10000 nM | > 10000 nM | 0 | 0
21 | CCNC(=O)C[C@@H]1N=C(c2ccc(Cl)cc2)c2cc(OC)ccc2-n2c(C)nnc21 | 1090 nM | > 10000 nM | 5.2 | 0.1 | > 10000 nM | > 10000 nM | 0 | 0
22 | C=C1C[C@@H]2[C@H](CC[C@]3(C)C(=O)CC[C@@H]23)[C@@]2(C)C=CC(=O)C=C12 [Exemestane] | > 10000 nM | > 10000 nM | 0.1 | 0.9 | > 10000 nM | > 10000 nM | 0 | 0
